According to patent US20250360167A1 (Keryx Biopharmaceuticals, Inc., priority 2013, published 2025):

Tests used:
hemoglobin = experiment: Phase 3 trial (Example 1): hemoglobin; format: in vivo, human; parameters: Hemoglobin, Mean / Hemoglobin, Median / Hemoglobin, Change from Baseline, Mean / Hemoglobin, Change from Baseline, Median / Hemoglobin, LS Mean: unit not given here; settings: for Hemoglobin, Mean / Hemoglobin, Median / Hemoglobin, LS Mean / Hemoglobin, Change from Baseline, Mean / Hemoglobin, Change from Baseline, Median / Hemoglobin, Treatment Differences, LS Mean (KRX-0502) − LS Mean (control), (SE): Table 17
From the text: Complete Blood Count (CBC) (white blood cell [WBC] count, white blood cell types [WBC differential], red blood cell [RBC] count, hematocrit [HCT], hemoglobin [Hgb], red blood cell indices, platelet [thrombocyte] count) was done at the Randomization Visit (Visit 4); at Visits 11 (Week 12), 14 (Week 24), 17 (Week 36), 20 (Week 48), and 21 (Week 52) of the 52-week Safety Assessment Period; and at Visit 25 (Week 56) of the Efficacy Assessment Period.

[1] = Phase 2 trial (Example 2): treatment failures; format: in vivo, human; settings: two consecutive visits; 12-week treatment period
Procedure: If a subject has a serum phosphorus ≥6.0 mg/dL for at least two visits in a row during the 12-week treatment period, the subject is considered a treatment failure, stops study drug and exits the study.
The use of IV iron and erythropoietin stimulating agents (ESAs) is not permitted during the two-week washout and 12-week treatment periods. If a subject's hemoglobin level (Hgb) is <9.0 g/dL during the two-week washout, the subject is a screen failure. If a subject's Hgb is <9.0 g/dL for at least two visits in a row during the 12-week treatment period, the subject is considered a treatment failure, stops study drug and exits the study.
Patients were discontinued from the study if they had hemoglobin measurements <9.0 g/dL on two consecutive visits or serum phosphorus measurements ≥6.0 mg/dL on two consecutive visits following randomization.

[2] = Day 0 Baseline, Safety Assessment Period

In the case of “iron (+3), x (1, 2, 3-propanetricarboxylic acid, 2-hydroxy-), y (H2O) [KRX-0502]”, the “Mean Hemoglobin, LS Mean Difference from Active Control Group at Week 52” value (hemoglobin; ANCOVA, Table E) is reported as 0.4 g/dL, the “Mean Hemoglobin” value (hemoglobin; Baseline (Day 0), Table E) is reported as 11.6 g/dL and the “Hemoglobin, Mean” value (hemoglobin; [2]) is reported as 11.61. The “Hemoglobin, Median” value (hemoglobin; [2]) was 11.45, the “Mean Hemoglobin, Change from Baseline at Week 52” value (hemoglobin; Table E) was -0.2 g/dL and the “Hemoglobin, LS Mean” value (hemoglobin; Week 12, ANCOVA) was 11.83. The “Hemoglobin, Change from Baseline, Mean” value (hemoglobin; Week 12) was 0.19, the “Hemoglobin, Change from Baseline, Median” value (hemoglobin; Week 12) was 0.10 and the “Hemoglobin, Mean” value (hemoglobin; Week 12) was 11.82. The “Hemoglobin, Median” value (hemoglobin; Week 12) was 11.70, the “Hemoglobin, Treatment Differences, LS Mean (KRX-0502) − LS Mean (control), (SE)” value (“Hemoglobin, Treatment Differences … (SE)” for short) (hemoglobin; Week 12) was 0.30 (0.14) and the “Hemoglobin, LS Mean” value (hemoglobin; Week 24, ANCOVA) was 11.56. The “Hemoglobin, Change from Baseline, Mean” value (hemoglobin; Week 24) was −0.08, the “Hemoglobin, Change from Baseline, Median” value (hemoglobin; Week 24) was −0.10 and the “Hemoglobin, Mean” value (hemoglobin; Week 24) was 11.55. The “Hemoglobin, Median” value (hemoglobin; Week 24) was 11.30, the “Hemoglobin, Treatment Differences … (SE)” value (hemoglobin; Week 24) was 0.12 (0.13) and the “Hemoglobin, LS Mean” value (hemoglobin; Week 36, ANCOVA) was 11.55. For the same substance, the “Hemoglobin, Change from Baseline, Mean” value (hemoglobin; Week 36) was −0.08, the “Hemoglobin, Change from Baseline, Median” value (hemoglobin; Week 36) was −0.10 and the “Hemoglobin, Mean” value (hemoglobin; Week 36) was 11.54. For the same substance, the “Hemoglobin, Median” value (hemoglobin; Week 36) was 11.20, the “Hemoglobin, Treatment Differences … (SE)” value (hemoglobin; Week 36) was 0.27 (0.14) and the “Hemoglobin, LS Mean” value (hemoglobin; Week 48, ANCOVA) was 11.52. The “Hemoglobin, Change from Baseline, Mean” value (hemoglobin; Week 48) was −0.12, the “Hemoglobin, Change from Baseline, Median” value (hemoglobin; Week 48) was −0.20 and the “Hemoglobin, Mean” value (hemoglobin; Week 48) was 11.50. The “Hemoglobin, Median” value (hemoglobin; Week 48) was 11.20, the “Hemoglobin, Treatment Differences … (SE)” value (hemoglobin; Week 48) was 0.30 (0.14) and the “Hemoglobin, LS Mean” value (hemoglobin; Week 52, ANCOVA) was 11.44. The “Mean Hemoglobin” value (hemoglobin; Week 52, LOCF, Table E) was 11.4 g/dL, the “Hemoglobin, Change from Baseline, Mean” value (hemoglobin; Week 52) was −0.20 and the “Hemoglobin, Change from Baseline, Median” value (hemoglobin; Week 52) was −0.20. The “Hemoglobin, Mean” value (hemoglobin; Week 52) was 11.42, the “Hemoglobin, Median” value (hemoglobin; Week 52) was 11.20 and the “Hemoglobin, Treatment Differences … (SE)” value (hemoglobin; Week 52) was 0.36 (0.14). The “Treatment Failures (n), Hemoglobin <9.0 g/dL” value [1] was 1 and the “Treatment Failures (n), Serum Phosphorus ≥6.0 mg/dL” value [1] was 0.
